Source: patent US20250179027A1, “CYCLOALKYL OR HETEROCYCLYL SUBSTITUTED HETEROARYL COMPOUND, AND COMPOSITION AND USE THEREOF” (Shenzhen TargetRx, Inc., priority 2022, published 2025)

Legend:
Assay type in all cases: biochemical
Conditions in all cases: HTRF TK kit
ITK = target: T1, ITK (Homo sapiens, UniProt Q08881); test: HTRF kinase activity inhibition assay, ITK
T1 construct: purchased Carna 08-181
T1 sequence (Q08881 1-620): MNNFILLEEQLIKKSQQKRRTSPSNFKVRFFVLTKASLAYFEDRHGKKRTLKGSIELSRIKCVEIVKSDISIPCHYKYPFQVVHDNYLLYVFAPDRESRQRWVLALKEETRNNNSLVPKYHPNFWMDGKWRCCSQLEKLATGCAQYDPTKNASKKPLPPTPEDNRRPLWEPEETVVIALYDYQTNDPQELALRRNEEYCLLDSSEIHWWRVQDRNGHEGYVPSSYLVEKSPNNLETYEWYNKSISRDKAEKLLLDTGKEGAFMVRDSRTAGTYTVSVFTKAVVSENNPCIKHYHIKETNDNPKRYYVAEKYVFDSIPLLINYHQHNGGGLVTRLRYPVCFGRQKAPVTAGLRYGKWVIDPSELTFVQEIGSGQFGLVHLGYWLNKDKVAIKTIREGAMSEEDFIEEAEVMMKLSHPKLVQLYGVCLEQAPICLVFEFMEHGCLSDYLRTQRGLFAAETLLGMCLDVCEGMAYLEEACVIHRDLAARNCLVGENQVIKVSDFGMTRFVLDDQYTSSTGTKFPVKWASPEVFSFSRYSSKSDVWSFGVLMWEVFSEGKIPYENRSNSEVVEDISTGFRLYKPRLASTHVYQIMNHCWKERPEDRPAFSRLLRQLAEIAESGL
Text: (§1) In this assay, the HTRF TK Kit (Catalog No. 62TKOPEC) provided by Cisbio was used to detect the inhibitory activity of compounds on BTK kinase and BTK C481S kinase and the selectivity of compounds relative to EGFR, ITK and TEC kinases.
(§2) Reagents and consumables: BTK kinase (Invitrogen, Catalog No. PV3587), BTK C481S (Carna, Product No. 08-547), ITK (Carna, Product No. 08-181), EGFR (Carna, Product No. 08-115), TEC (Carna, Product No. 08-182), HTRF-TK kit (Cisbio, Product No. 62TKOPEC), MgCl2 (Sigma, Product No. M1028), MnCl2 (Sigma, Product No. M1787), DTT (Sigma, Product No. D0632), ATP (Sigma, Product No. A7699-1 g), DMSO (Sigma, Product No. D2650), 384-well plate (PE, Product No. 6008280).
(§3) The entire operation steps were carried out on ice, and the total reaction volume was 10 μL. The compound (4 μL), substrate and ATP (4 μL), kinase (2 μL) were added in sequence to a 384-well plate, and shaked for 30 seconds. After an appropriate time at room temperature, the detection reagent was added. After 1 hour at room temperature, the plate was detected with a microplate reader. The specific steps were as follows: • a) 1× kinase buffer solution required for kinase detection was calculated according to the amount of the detection compound, and prepared as needed; • b) compounds with 2.5×working concentration were prepared, the 100 times gradient concentration solution of compounds was diluted by 4 μL to the desired concentration, mixed well, and added to each well at 4 μL per well; • c) 5×working concentration of substrate and ATP were prepared, mixed in a ratio of 1:1 before adding to a 384-well plate, and added to each well at 4 μL per well; • d) 5×working concentration of kinase was prepared, and 2 μL was added to each well; • e) the plate was shaked on a microplate oscillator for 30 seconds, sealed with a sealing membrane, and reacted at room temperature for an appropriate time; • f) 4×working concentrations of streptavidin XL-665 and TK antibody-cryptate compound were prepared, mixed in a ratio of 1:1 before adding to a 384-well plate, and added to each well at 10 μL per well; • g) the plate was read after reacting at room temperature for 1 hour; • h) the wells with only substrate, ATP and 1% DMSO added but no kinase were blank control wells, and the wells with only substrate, ATP, 1% DMSO and kinase were positive control wells.
(§4) Readings: The values of 620 nm (cryptate) and 665 nm (XL665) were read with a BioTek Synerg Neo2 microplate reader, the ratio of 665/620 per well was calculated, and the data were exported. Data analysis: IC50 was calculated using GraphPad Prism 7.0 software. The following nonlinear fitting formula was used to obtain the IC50 (half inhibitory concentration) of compounds:
(§5) [formula] • X: Compound concentration log value • Y: Inhibition rate (% inhibition)
(§6) The kinase inhibition rate (% inhibition rate) was calculated as: […]

BTK kinase = target: T2, BTK kinase (Homo sapiens, UniProt Q06187); test: HTRF kinase activity inhibition assay, BTK
T2 construct: purchased Invitrogen PV3587
Text: as §1, §2, §3, §4, §5, §6

TEC = target: T3, TEC (Homo sapiens, UniProt P42680); test: HTRF kinase activity inhibition assay, TEC
T3 construct: purchased Carna 08-182
T3 sequence (P42680 1-631): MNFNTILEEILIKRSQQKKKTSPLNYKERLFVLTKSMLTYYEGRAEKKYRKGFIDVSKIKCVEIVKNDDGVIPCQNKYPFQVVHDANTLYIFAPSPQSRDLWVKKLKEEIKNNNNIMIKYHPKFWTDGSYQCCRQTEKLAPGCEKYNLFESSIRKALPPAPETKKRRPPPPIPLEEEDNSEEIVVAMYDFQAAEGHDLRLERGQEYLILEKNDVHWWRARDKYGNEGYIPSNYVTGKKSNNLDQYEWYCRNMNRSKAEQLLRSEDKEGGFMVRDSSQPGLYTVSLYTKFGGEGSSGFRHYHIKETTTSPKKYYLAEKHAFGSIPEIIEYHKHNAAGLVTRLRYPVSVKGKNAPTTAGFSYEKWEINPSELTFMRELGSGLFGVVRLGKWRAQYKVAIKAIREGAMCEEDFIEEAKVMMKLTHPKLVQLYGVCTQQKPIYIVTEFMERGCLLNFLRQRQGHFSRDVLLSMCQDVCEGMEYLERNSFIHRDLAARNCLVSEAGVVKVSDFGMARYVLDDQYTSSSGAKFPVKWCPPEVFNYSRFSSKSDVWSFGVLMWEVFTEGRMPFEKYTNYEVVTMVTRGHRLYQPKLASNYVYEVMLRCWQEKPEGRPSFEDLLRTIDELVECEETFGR
Text: as §1, §2, §3, §4, §5, §6

T2 sequence (Q06187 whole entry): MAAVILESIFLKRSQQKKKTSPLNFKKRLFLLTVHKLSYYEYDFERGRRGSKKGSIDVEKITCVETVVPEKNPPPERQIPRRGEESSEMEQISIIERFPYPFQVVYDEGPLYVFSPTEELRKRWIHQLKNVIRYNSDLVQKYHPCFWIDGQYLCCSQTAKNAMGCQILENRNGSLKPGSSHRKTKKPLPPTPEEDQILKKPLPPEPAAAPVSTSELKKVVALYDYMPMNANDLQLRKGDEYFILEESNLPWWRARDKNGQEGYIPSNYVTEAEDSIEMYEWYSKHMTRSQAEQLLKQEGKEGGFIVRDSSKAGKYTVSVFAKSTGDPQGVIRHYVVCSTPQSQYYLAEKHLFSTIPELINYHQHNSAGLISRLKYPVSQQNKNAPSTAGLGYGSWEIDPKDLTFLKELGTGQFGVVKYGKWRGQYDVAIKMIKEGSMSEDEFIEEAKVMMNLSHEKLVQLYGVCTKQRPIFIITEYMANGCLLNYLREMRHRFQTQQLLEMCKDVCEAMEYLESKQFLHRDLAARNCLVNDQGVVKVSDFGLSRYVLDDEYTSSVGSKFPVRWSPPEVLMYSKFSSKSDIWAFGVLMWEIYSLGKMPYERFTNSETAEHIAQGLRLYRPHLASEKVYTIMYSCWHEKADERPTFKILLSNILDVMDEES

SMILES | IC50 (ITK) | IC50 (BTK kinase) | IC50 (TEC)
COc1ccc(F)cc1C(=O)NCc1ccc(-c2nn(C3CCCC(O)C3)c3ncnc(N)c23)cc1 (single isomer, unassigned) [Example 6] | > 10000 nM | ≤ 10 nM | 100 to 1000 nM
COc1ccc(F)cc1C(=O)NCc1ccc(-c2nc(C3CCCC(O)C3)n3ccnc(N)c23)cc1 (stereo not shown) [Example 20, N-(4-(8-amino-3-(3-hydroxycyclohexanyl)imidazo[1,5-a]pyrazin-1-yl)benzyl)-5-fluoro-2-methoxybenzamide] | > 10000 nM | ≤ 10 nM | 100 to 1000 nM
COc1ccc(F)cc1C(=O)NCc1ccc(-c2nn([C@H]3CC[C@@H](O)CC3)c3ncnc(N)c23)cc1 [Example 30, N-(4-(4-amino-1-((1S,4S)-4-hydroxycyclohexyl)-1H-pyrazolo[3,4-d]pyrimidin-3-yl)benzyl)-5-fluoro-2-methoxybenzamide] | > 10000 nM | ≤ 10 nM | 100 to 1000 nM
COc1ccc(F)cc1C(=O)NCc1ccc(-c2nn(C3CCC(CO)OC3)c3ncnc(N)c23)cc1 (single isomer, unassigned) [Example 18, N-(4-(4-amino-1-(6-(hydroxymethyl)tetrahydro-2H-pyran-3-yl)-1H-pyrazolo[3,4-d]pyrimidin-3-yl)benzyl)-5-fluoro-2-methoxybenzamide] | > 10000 nM | ≤ 10 nM | 100 to 1000 nM
COc1ccc(F)cc1C(=O)NCc1ccc(-c2nn(C3CCCC(O)C3)c3ncnc(N)c23)cc1 (single isomer, unassigned) [Example 7] | > 10000 nM | – | 100 to 1000 nM
COc1ccc(F)cc1C(=O)NCc1ccc(-c2nn(C3CCCC(O)C3)c3ncnc(N)c23)cc1 (stereo not shown) [Example 4] | > 10000 nM | ≤ 10 nM | 100 to 1000 nM
COc1ccc(F)cc1C(=O)NCc1ccc(-c2cc(C3CCC(CO)OC3)n3ncnc(N)c23)cc1 (single isomer, unassigned) [Example 59, N-(4-(4-amino-7-(6-(hydroxymethyl)tetrahydro-2H-pyran-3-yl)pyrrolo[2,1-f][1,2,4]triazin-5-yl)benzyl)-5-fluoro-2-methoxybenzamide] | > 10000 nM | 10 to 50 nM | 1000 to 10000 nM
COc1ccc(F)cc1C(=O)NCc1ccc(-c2nn(C3CCC(O)CC3)c3ncnc(N)c23)cc1 [Example 29, N-(4-(4-amino-1-((1R,4R)-4-hydroxycyclohexyl)-1H-pyrazolo[3,4-d]pyrimidin-3-yl)benzyl)-5-fluoro-2-methoxybenzamide] | > 10000 nM | ≤ 10 nM | 100 to 1000 nM
COc1ccc(F)cc1C(=O)NCc1ccc(-c2nn([C@H]3CC[C@@H](CO)CC3)c3ncnc(N)c23)cc1 [Example 55, cis-N-(4-(4-amino-1-((1S,4S)-4-(hydroxymethyl)cyclohexyl)-1H-pyrazolo[3,4-d]pyrimidin-3-yl)benzyl)-5-fluoro-2-methoxybenzamide] | > 10000 nM | ≤ 10 nM | 100 to 1000 nM
COc1ccc(F)cc1C(=O)NCc1ccc(-c2nn([C@H]3CC[C@H](CO)CC3)c3ncnc(N)c23)cc1 [Example 56, trans-N-(4-(4-amino-1-((1R,4R)-4-(hydroxymethyl)cyclohexyl)-1H-pyrazolo[3,4-d]pyrimidin-3-yl)benzyl)-5-fluoro-2-methoxybenzamide] | > 10000 nM | ≤ 10 nM | 100 to 1000 nM
COc1ccc(F)cc1C(=O)NCc1ccc(-c2nc(C3CCCC(O)C3)n3ccnc(N)c23)cc1 (single isomer, unassigned) [Example 22, N-(4-(8-amino-3-(3-hydroxycyclohexanyl)imidazo[1,5-a]pyrazin-1-yl)benzyl)-5-fluoro-2-methoxybenzamide] | > 10000 nM | ≤ 10 nM | 100 to 1000 nM
COc1ccc(F)cc1C(=O)NCc1ccc(-c2nn(C3CCC(O)C3)c3ncnc(N)c23)cc1 (single isomer, unassigned) [Example 31, N-(4-(4-amino-1-(3-hydroxycyclopentanyl)-1H-pyrazolo[3,4-d]pyrimidin-3-yl)benzyl)-5-fluoro-2-methoxybenzamide] | > 10000 nM | ≤ 10 nM | 100 to 1000 nM
COc1ccc(F)cc1C(=O)NCc1ccc(-c2cc(C3CCC(CO)OC3)n3ncnc(N)c23)cc1 (single isomer, unassigned) [Example 60, N-(4-(4-amino-7-(6-(hydroxymethyl)tetrahydro-2H-pyran-3-yl)pyrrolo[2,1-f][1,2,4]triazin-5-yl)benzyl)-5-fluoro-2-methoxybenzamide] | > 10000 nM | ≤ 10 nM | 100 to 1000 nM
COc1ccc(F)cc1C(=O)NCc1ccc(-c2nn(C3CCCC(O)C3)c3ncnc(N)c23)cc1 (single isomer, unassigned) [Example 8] | > 10000 nM | – | 1000 to 10000 nM
COc1ccc(F)cc1C(=O)NCc1ccc(-c2nn(C3CCCC(O)C3)c3ncnc(N)c23)cc1 (single isomer, unassigned) [Example 5] | > 10000 nM | 10 to 50 nM | 100 to 1000 nM
